Test results reported in patent US6706740B2, “Fungicidal heterocyclic aromatic amides and their compositions, methods of use and preparation” (Dow AgroSciences LLC, priority 1999, dated 2004).
Read-outs that look alike come from different tables or passages of the source.

Experiments:
[1] = test system: Magnaporthe grisea (Pyricularia oryzae—PYRIOR); experiment: microbe, parasite or virus in culture; assay type: cell-based; conditions: Pyricularia oryzae, read-out: PYRIOR in vitro Growth Inhibition
[2] = test system: Rhizoctonia solani (RHIZSO); experiment: microbe, parasite or virus in culture; assay type: cell-based; conditions: Rhizoctonia solani, read-out: RHIZSO in vitro Growth Inhibition
[3] = test system: Mycosphaerella graminicola (Septoria tritici—SEPTTR); experiment: In vitro fungal growth inhibition, Mycosphaerella graminicola (SEPTTR); assay type: cell-based; conditions: Zymoseptoria tritici, read-out: SEPTTR in vitro Growth Inhibition
[4] = test system: Stagonospora nodorum (Leptosphaeria nodorum—LEPTNO); experiment: In vitro fungal growth inhibition, Stagonospora nodorum (LEPTNO); assay type: cell-based; conditions: Leptosphaeria, read-out: LEPTNO in vitro Growth Inhibition
Ustilago maydis (USTIMA) = experiment: microbe, parasite or virus in culture; assay type: cell-based; conditions: Mycosarcoma maydis, read-out: USTIMA in vitro Growth Inhibition
[5] = test system: Phytophthora infestans (PHYTIN); experiment: microbe, parasite or virus in culture; assay type: cell-based; conditions: Phytophthora infestans, read-out: PHYTIN in vitro Growth Inhibition
[6] = test system: Phytophthora infestans—PHYTIN; experiment: whole plant or invertebrate; assay type: in vivo; conditions: Phytophthora, in Solanum lycopersicum, 24 h, read-out: PHYTIN in vivo 1 Day Protectant
[7] = test system: Puccinia recondita—PUCCRT; experiment: Brown Rust of Wheat, in vivo whole plant, 24 Hour Protectant; conditions: control of fungal infection vs untreated plants; for pest or weed control at 100 ppm: Puccinia, read-out: PUCCRT in vivo 1 Day Protectant
Erysiphe graminis—ERYSGT = experiment: Powdery Mildew of Wheat, in vivo whole plant, 24 Hour Protectant; conditions: Erysiphe, control of fungal infection vs untreated plants, read-out: ERYSGT in vivo 1 Day Protectant
Septoria tritici—SEPTTR = experiment: Leaf Blotch of Wheat, in vivo whole plant, 24 Hour Protectant; conditions: Zymoseptoria tritici, 24 h, control of fungal infection vs untreated plants, read-out: SEPTTR in vivo 1 Day Protectant
[8] = test system: Leptosphaeria nodorum—LEPTNO; experiment: Glume Blotch of Wheat, in vivo whole plant, 24 Hour Protectant; conditions: control of fungal infection vs untreated plants; for pest or weed control at 100 ppm: Leptosphaeria, read-out: LEPTNO in vivo 1 Day Protectant
[9] = wheat plants sprayed at 100 ppm, inoculated after 24 hours
[10] = 100 ppm spray, wheat, 24 hour protectant
[11] = 100 ppm spray, 24 hour protectant, wheat

| SMILES | inhibition at 25 ppm [1] [%] | inhibition at 25 ppm [2] [%] | inhibition at 25 ppm ([3]; 25 ppm in the growth medium) [%] | inhibition at 25 ppm ([4]; 25 ppm in the growth medium) [%] | inhibition at 25 ppm (Ustilago maydis (USTIMA)) [%] | inhibition at 25 ppm [5] [%] | pest or weed control at 100 ppm [6] [%] | pest or weed control at 100 ppm [7, 9] [%] | pest or weed control at 100 ppm (Erysiphe graminis—ERYSGT; [9]) [%] | pest or weed control at 100 ppm (Septoria tritici—SEPTTR; [9]) [%] | pest or weed control at 100 ppm [8, 9] [%] | melting point | other results |
| --- | --- | --- | --- | --- | --- | --- | --- | --- | --- | --- | --- | --- | --- |
| COc1ccnc(C(=O)Nc2ccc(Oc3cc(C(F)(F)F)nc(C(F)(F)F)c3)cc2)c1O [Compound 466] | < 80 | < 80 | < 80 | > 80 | < 80 | < 80 | < 25 | < 25 | < 25 | 25 to 74 | 25 to 74 | 198 to 200 °C |  |
| CCOc1ccnc(C(=O)NC2COC(=O)[C@H](Cc3ccccc3)[C@@H](OC(=O)C(C)C)[C@H](C)OC2=O)c1O (stereo partly drawn) [Compound 475] | > 80 | < 80 | > 80 | > 80 | < 80 | < 80 | < 25 | 25 to 74 | < 25 | 25 to 74 |  | 168 to 172 °C | LEPTNO in vivo 1 Day Protectant [8, 9]: + + |
| COc1ccnc(C(=O)Nc2cccc(NC(=O)c3ccc(C(F)(F)F)cc3)c2)c1O [Compound 454] | < 80 | < 80 |  |  | < 80 | < 80 | < 25 |  |  |  |  | 240 to 242 °C | inhibition at 25 ppm ([3]; 25 ppm in growth medium): < 80%; inhibition at 25 ppm ([4]; 25 ppm in growth medium): < 80%; pest or weed control at 100 ppm [7, 10]: < 25%; pest or weed control at 100 ppm (Erysiphe graminis—ERYSGT; [10]): < 25%; pest or weed control at 100 ppm (Septoria tritici—SEPTTR; [10]): 25 to 74%; pest or weed control at 100 ppm [8, 10]: 25 to 74% |
| COc1ccnc(C(=O)Nc2ccc(Oc3ccc(C(F)(F)F)cc3)cn2)c1O [Compound 470] | > 80 | > 80 | > 80 | > 80 | < 80 | < 80 | < 25 | 25 to 74 | 25 to 74 | 25 to 74 | 25 to 74 | 173 to 175 °C |  |
| CSc1nnc(C(=O)NC2CCCCCCC2)c(O)n1 [Compound 546] | < 80 | < 80 | < 80 | < 80 | < 80 | > 80 | < 25 | 25 to 74 | < 25 | 25 to 74 | 25 to 74 | 208 to 213 °C |  |
| CC(C)C(=O)O[C@H]1[C@H](C)OC(=O)[C@@H](NC(=O)c2cc(O)cnc2O)COC(=O)[C@@H]1Cc1ccccc1 [Compound 527] | < 80 | < 80 | < 80 | < 80 | < 80 | < 80 | < 25 | 25 to 74 | < 25 | 25 to 74 | < 25 | 120 to 130 °C |  |
| CCOC(=O)c1cc(Oc2ccc(C(F)(F)F)cc2)ccc1NC(=O)c1nccc(OC)c1O [Compound 427] | < 80 | < 80 |  |  | < 80 | < 80 | < 25 |  |  |  |  | 145 to 147 °C | inhibition at 25 ppm ([3]; 25 ppm in growth medium): < 80%; inhibition at 25 ppm ([4]; 25 ppm in growth medium): < 80%; pest or weed control at 100 ppm [7, 10]: 25 to 74%; pest or weed control at 100 ppm (Erysiphe graminis—ERYSGT; [10]): < 25%; pest or weed control at 100 ppm (Septoria tritici—SEPTTR; [10]): 25 to 74%; pest or weed control at 100 ppm [8, 10]: 25 to 74% |
| Cc1ccc(CNC(=O)c2ncccc2O)cc1 [Compound 223] | > 80 | < 80 |  |  | > 80 | > 80 | < 25 |  |  |  |  | 83 to 84 °C | inhibition at 25 ppm ([3]; 25 ppm in growth medium): < 80%; inhibition at 25 ppm ([4]; 25 ppm in growth medium): > 80%; pest or weed control at 100 ppm [7, 11]: < 25%; pest or weed control at 100 ppm (Erysiphe graminis—ERYSGT; [11]): < 25%; pest or weed control at 100 ppm (Septoria tritici—SEPTTR; [11]): < 25%; pest or weed control at 100 ppm [8, 11]: < 25% |
| COc1ccnc(C(=O)NC2COC(=O)[C@H]3CCCC[C@@H]3C(=O)OC2)c1O [Compound 377] | < 80 | < 80 |  |  | < 80 | > 80 | < 25 |  |  |  |  | 234 to 235 °C | inhibition at 25 ppm ([3]; 25 ppm in growth medium): < 80%; inhibition at 25 ppm ([4]; 25 ppm in growth medium): < 80%; pest or weed control at 100 ppm [7, 10]: < 25%; pest or weed control at 100 ppm (Erysiphe graminis—ERYSGT; [10]): < 25%; pest or weed control at 100 ppm (Septoria tritici—SEPTTR; [10]): < 25%; pest or weed control at 100 ppm [8, 10]: 25 to 74% |
| Cc1ncc(C(=O)N[C@H]2COC(=O)[C@H](Cc3ccccc3)[C@@H](OC(=O)C(C)C)[C@H](C)OC2=O)c(O)n1 [Compound 542] | < 80 | < 80 | < 80 | < 80 | < 80 | < 80 | < 25 | < 25 | < 25 | 25 to 74 | < 25 | 220 °C (dec.) |  |
| C=C1COC(=O)[C@@H](NC(=O)c2nccc(OC)c2OC(C)=O)COC(=O)C1 [Compound 595] | < 80 | < 80 | < 80 | < 80 | < 80 | < 80 | < 25 | < 25 | < 25 | < 25 | 25 to 74 | 163 to 164 °C |  |
| Cc1ccnc(C(=O)N[C@H]2COC(=O)[C@H](Cc3ccccc3)[C@@H](OC(=O)C(C)C)[C@H](C)OC2=O)c1OC(=O)C(C)C [Compound 572] | < 80 | < 80 | < 80 | < 80 | < 80 | < 80 | < 25 |  | < 25 | 25 to 74 | 25 to 74 | 163 to 166 °C | PUCCRT in vivo 1 Day Protectant [7, 9]: + + |
| COc1ccnc(C(=O)Nc2ccc(Oc3ccnc(C(F)(F)F)c3)cc2)c1O [Compound 465] | > 80 | < 80 | < 80 | < 80 | < 80 | < 80 | < 25 | < 25 | < 25 | 25 to 74 | 25 to 74 | 160 to 162 °C |  |
| CC(C)C(=O)O[C@H]1[C@H](C)OC(=O)[C@@H](NC(=O)c2nnccc2O)COC(=O)[C@@H]1Cc1ccccc1 [Compound 532] | < 80 | < 80 | < 80 | < 80 | < 80 | < 80 | 25 to 74 | 25 to 74 | 25 to 74 | 25 to 74 | 25 to 74 | 233 °C (dec.) |  |
